Measured values reported in patent US5326784A, “Cycloalkylalkylamines which are sigma-receptor ligands and their application in therapy” (Institut de Recherche Jouveinal, priority 1992, dated 1994).
Counter-ions that a name gives are not always drawn. Like-named read-outs stand apart in the source and are kept apart here.

Key:
[1] = tested on: dopaminergic (D2) receptors; conditions: state of the art; cited from earlier work
[2] = state of the art; cited from earlier work
rats = conditions: state of the art; cited from earlier work
sigma receptors [3] = biological target: T1, sigma receptors (Rattus norvegicus, UniProt Q9R0C9); assay: Sigma binding, SKF 10,047/rat brain membranes (Table 1.B); conditions: rat brain membranes
T1 construct: (SKF 10,047/rat brain membranes); from tissue; host or cells: rat brain membranes
T1 sequence (Q9R0C9 whole entry): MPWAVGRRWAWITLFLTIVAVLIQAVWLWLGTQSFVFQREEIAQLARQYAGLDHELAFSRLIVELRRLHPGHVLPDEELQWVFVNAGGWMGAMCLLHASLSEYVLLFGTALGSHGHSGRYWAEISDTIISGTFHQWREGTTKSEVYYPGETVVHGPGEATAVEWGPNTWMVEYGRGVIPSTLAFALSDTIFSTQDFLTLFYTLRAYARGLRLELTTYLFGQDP
Description: (§1) Tests of binding to phencyclidine and dopamine D2 receptors were carried out to study the possible undesirable interactions of the compounds of the invention with these receptors. The ligands used are [^3 H]-TCP for phencyclidine and [^3 H]spiroperidol for dopamine.
(§2) The binding experiments are carried out with the sigma ligands (+)-[^3 H]-SKF10,047 and [^3 H]-TCP according to the technique described by Largent B. L. et al. in J. Pharmacol. Exp. Ther. 238, 1986, p 739-748, the principle of which is to place in competition the respective affinities of the product under study and that of a radioactive characteristic ligand for sigma receptors.
(§3) The technique consists in incubating solutions of suitable concentrations of the test products with standard samples of membranes loaded with the labeled ligand, and then in determining the radioactivity of the solution after filtration.
(§4) The results are processed so as to calculate the IC50 of the product under study, which represents the nanomolar concentration of solution capable of inhibiting 50% of the binding of the tritiated ligand to the sigma receptors of the membranes used.
(§5) The SKF 10,047 binding tests are performed with guinea pig or rat brain membranes, those with DTG and TCP are performed with rat brain membranes; the D2 binding tests are performed with guinea pig brain membranes.

sigma receptors [4] = biological target: T2, sigma receptors (Cavia porcellus, UniProt Q60492); assay: Sigma binding test with (+)-[3H]-SKF10,047, guinea pig brain membranes (Table 1.A); conditions: read-out: SKF10047 guinea pig IC50
T2 construct: from tissue; host or cells: guinea pig brain membranes
T2 sequence (Q60492 whole entry): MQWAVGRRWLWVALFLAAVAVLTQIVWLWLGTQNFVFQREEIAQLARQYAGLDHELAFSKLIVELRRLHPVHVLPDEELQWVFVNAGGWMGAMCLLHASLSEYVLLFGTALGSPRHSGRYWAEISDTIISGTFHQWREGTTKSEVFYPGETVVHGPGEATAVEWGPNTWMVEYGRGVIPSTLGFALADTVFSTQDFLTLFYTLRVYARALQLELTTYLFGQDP
Description: as §1, §2, §3, §4, §5

sigma receptors [5] = assay: Sigma binding test with [3H]-DTG (Table 1.A); conditions: guinea pig
Description: as §1
(§6) Binding with the ligand [^3 H]-DTG is carried out according to the technique of Weber, E. M. et al., 1986, Proc. Natl. Acad. Sci., 83:8784-8788, and binding with the ligand [^3 H]spiroperidol is carried out according to the technique of Fields, J. Z., Reisine, R. D. and Yamamura, H. 1., Brain Res., 136,578 (1977).
as §3, §4, §5

[6] = biological target: phencyclidine (PCP) receptors; assay: PCP receptor binding test with [3H]-TCP (Table 1.A); conditions: guinea pig
Description: as §1, §2, §3, §4, §5

dopamine D2 receptors = biological target: T3, dopamine D2 receptors (Rattus norvegicus, UniProt P61169); assay: Dopamine D2 binding test with [3H]spiroperidol (Table 1.A)
T3 construct: from tissue; guinea pig by b443
T3 sequence (P61169 whole entry): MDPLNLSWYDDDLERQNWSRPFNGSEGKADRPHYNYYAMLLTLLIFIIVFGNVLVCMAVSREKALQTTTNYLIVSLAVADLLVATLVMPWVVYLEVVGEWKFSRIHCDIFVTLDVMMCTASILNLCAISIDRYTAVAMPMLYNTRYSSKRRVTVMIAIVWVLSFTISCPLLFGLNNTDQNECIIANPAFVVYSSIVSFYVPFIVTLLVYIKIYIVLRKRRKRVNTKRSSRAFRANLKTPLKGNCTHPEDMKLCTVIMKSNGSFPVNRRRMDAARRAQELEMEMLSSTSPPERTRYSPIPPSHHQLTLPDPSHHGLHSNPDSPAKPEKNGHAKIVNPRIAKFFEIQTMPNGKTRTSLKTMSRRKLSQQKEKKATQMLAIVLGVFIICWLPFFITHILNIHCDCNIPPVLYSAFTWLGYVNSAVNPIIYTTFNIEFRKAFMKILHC
Description: as §1, §6, §3, §4, §5

[7] = tested on: convulsions induced by electric shocks in rats; assay: Protection against convulsions induced by electric shocks in rats; format: in vivo, rat (male Sprague Dawley); conditions: sc, 0.5 h; rat; subcutaneous; shock 30 minutes after injection; protection in 50% of the animals
Description: (§7) Moreover, "in vivo" tests enabled the capacity of the compounds of the invention (I) to inhibit convulsions induced by electric shocks in rats, and also their capacity to inhibit gastroduodenal ulcers caused by administration of cysteamine, to be detected.
a) Convulsions in rats: electric shock
The psychotropic properties of the compounds (I) were determined by the protection against convulsions induced by electric shocks in rats.
The emission of an electric shock causes a convulsive state in the animal, characterized by the convulsive extension of front and rear legs.
In practice, the study is carried out on groups of 10 male Sprague Dawley rats weighing approximately 100 grams, to which the product under study is administered subcutaneously in aqueous solution on the basis of 0.5 ml per 100 grams of the animal's body weight.
An electric shock is then produced 30 minutes after the injection by means of a UGO BASILE ECT UNIT 7801 electric shock apparatus (APELEX): frequency 50 cps/sec, pulse width 0.6 ms, shock duration 1 sec, intensity 90 mA. […] Each animal then receives a score, which is equal to 1 for the presence of tonic convulsions and zero for the absence of tonic convulsions. […] The results are compared statistically between the control group and the treated group by the test of Fisher R. A. and Yates F. (Biometrika, 1948, 35-149) and the ED50 (dose of the test compound giving rise to protection in 50% of the animals) is calculated by the method of Litchfield J. T. and Wilcoxon F. (J. Pharmacol. Exp. Therap., 1949, 96-99).

[8] = tested on: cysteamine-induced ulcers; assay: Inhibition of cysteamine-induced gastroduodenal ulcers in rats; format: in vivo, rat (male Sprague Dawley); conditions: rat, 50% inhibition of ulceration, read-out: Cysteamine ulcer ED50
From the text: as §7
b) Cysteamine-induced ulcer
The activity of the compounds of the invention with respect to the gastrointestinal tract was shown in rats by their capacity to inhibit gastroduodenal ulcers caused by administration of cysteamine. (Robert and al., Digestion, 1974, 11, 199-211).
In practice, the study is carried out according to the method described by Selye, H. and Szabo, S., Nature, 1973, 244:458-459 on groups of male Sprague Dawley rats weighing 200 g on average, to which a solution of cysteamine hydrochloride is administered by subcutaneous injection on the basis of 400 mg/kg, […] the ulcerogenic agent. Eighteen hours later, the rats are sacrificed by elongation, and the stomach and duodenum are removed, rinsed with physiological solution and pinned onto a card. The presence of ulcers of the antropyloroduodenal region is looked for, and their area, expressed in mm^2, is evaluated by multiplying the two principal perpendicular axes of the lesion. Statistical analysis of the results is carried out using Student's test for the ulcerated areas in comparison with a control group. The results are presented in Table 2, and expressed as an ED50 of ulceration scores, which are the effective doses of product in (mg/kg) for a 50% inhibition of the cysteamine-induced ulcers.

[9] = Stability remark on isolated product; format: physicochemical; conditions: free base, after Stage 3
[10] = tested on: dopaminergic D2 receptors; conditions: state of the art; cited from earlier work
[11] = tested on: phencyclidine (PCP) receptors; conditions: state of the art; cited from earlier work

For `CCCN1CCC[C@H](c2cccc(O)c2)C1` [(+)-3-PPP, (+)-3-(3-hydroxyphenyl)-N-(1-propyl)piperidine], the “affinity for dopaminergic (D2) receptors” value [1] is given as “strong affinity for dopaminergic (D2) receptors”.
For `Cc1ccccc1NC(=N)Nc1ccccc1C` [DTG, 1,3-di-o-tolylguanidine], the “crossing the blood-brain barrier” value [2] is listed as “difficulty in crossing the blood-brain barrier” and the symptoms in rats (rats) is listed as “causes symptoms in rats similar to those of PCP”.
`CN(CCC1Cc2ccccc2C1=O)CC1CC1` (centres unmarked) [EXAMPLE 1, 2-[2-[(N-Cyclopropylmethyl-N-Methyl)Amino]Ethyl]-1-Oxo-1,2-Dihydroindene Hydrochloride] gave an IC50 (sigma receptors [3]) of 10.7 nM.
For `CN(CCC1CCc2ccccc2C1=O)CC1CC1` (centres unmarked) [EXAMPLE 2, 2-[2-[(N-Cyclopropylmethyl-N-Methyl)Amino]Ethyl]-1-Oxo-1,2,3,4-Tetrahydronaphthalene Hydrochloride], the IC50 (sigma receptors [4]) was 12 nM, the IC50 (sigma receptors [3]) was 19.4 nM and the IC50 (sigma receptors [5]) was 52 nM. The IC50 [6] was over 10000 nM, the IC50 (dopamine D2 receptors) was over 10000 nM and the ED50 [7] was 0.1 mg/kg.
`CN(CCC1CCc2ccccc2C1=O)CC1CCC1` (centres unmarked) [EXAMPLE 3, 2-[2-[(N-cyclobutylmethyl-N-methyl)amino]ethyl]-1-oxo-1,2,3,4-tetrahydronaphthalene] showed an IC50 (sigma receptors [4]) of 5.24 nM, an IC50 (sigma receptors [3]) of 11.1 nM and an IC50 [6] of over 10000 nM. The IC50 (dopamine D2 receptors) was 1170 nM, the ED50 [7] was 0.9 mg/kg and the ED50 ([8]; intraperitoneal route (ip)) was 5.7 mg/kg. The ED50 ([8]; oral route (po)) was 8.6 mg/kg.
In the case of `CN(CCC1CC1)CCC1CCc2ccccc2C1=O` (centres unmarked) [EXAMPLE 4, 2-[2-[(N-Cyclopropylethyl-N-Methyl)Amino]Ethyl]-1-oxo-1,2,3,4-Tetrahydronaphthalene Hydrochloride], the IC50 (sigma receptors [4]) is reported as 2.83 nM, the IC50 (sigma receptors [3]) is reported as 10.6 nM and the IC50 (sigma receptors [5]) is reported as 56 nM. It also gave an IC50 [6] of over 10000 nM, an IC50 (dopamine D2 receptors) of 1910 nM and an ED50 [7] of 1 mg/kg. It also gave an ED50 ([8]; oral route (po)) of 15.6 mg/kg.
Work on `CN(CCC1CCc2ccccc2C1=O)CC1CCCCC1` (centres unmarked) [EXAMPLE 5, 2-[2-[(N-Cyclohexylmethyl-N-Methyl)Amino]-Ethyl]-1-Oxo-1,2,3,4-Tetrahydronaphthalene Hydrochloride] yielded an IC50 (sigma receptors [3]) of 8.2 nM.
Work on `COc1ccc2c(c1)CCC(CCN(C)CC1CCCCC1)C2=O` (centres unmarked) [EXAMPLE 6, 2-[2-[(N-Cyclohexylmethyl-N-Methyl)Amino]-Ethyl]6-Methoxy-1-oxo-1,2,3,4-Tetrahydronaphthalene Hydrochloride] yielded an IC50 (sigma receptors [3]) of 8 nM.
With `O=C1c2ccccc2CCC1CCNC1CC1` (centres unmarked) [EXAMPLE 7, 2-[2-(N-Cyclopropylamino)Ethyl]-1-Oxo-1,2,3,4-Tetrahydronaphthalene] the stability [9] was “unstable”.
`CCCN(CCC1CCc2ccccc2C1=O)CC1CC1` (centres unmarked) [EXAMPLE 9, 2-[2-[(N-cyclopropylmethyl-N-propyl)amino]ethyl]-1-oxo-1,2,3,4-tetrahydronaphthalene] gave an IC50 (sigma receptors [3]) of 10.4 nM.
`CN(CCC1CCCc2ccccc2C1=O)CC1CC1` (centres unmarked) [EXAMPLE 10, 2-[2-[(N-Cyclopropylmethyl-N-Methyl)Amino]Ethyl]-1-Benzosuberone Hydrochloride] showed an IC50 (sigma receptors [3]) of 5.7 nM and an ED50 [7] of 1.6 mg/kg.
In the case of `CN(CCC1CCCc2ccccc2C1=O)CC1CCCCC1` (centres unmarked) [EXAMPLE 11, 2-[2-[(N-Cyclohexylmethyl-N-Methyl)Amino]-Ethyl]-1-Benzosuberone Hydrochloride], the IC50 (sigma receptors [3]) is reported as 6.6 nM.
For `CN(CCC1CCc2ccccc2C12OCCO2)CC1CC1` (centres unmarked) [EXAMPLE 12, 2-[2-[(N-cyclopropylmethyl-N-methyl)amino]ethyl]-1-[spiro(cyclodioxyethyl)]-1,2,3,4-tetrahydro naphhtalene], the IC50 (sigma receptors [3]) was 30.5 nM, the ED50 [7] was 1.7 mg/kg and the ED50 ([8]; intraperitoneal route (ip)) was 11.6 mg/kg.
For `CN(CCC1CCc2ccccc2C1=NO)CC1CCC1` (centres unmarked) [EXAMPLE 13, 2-[2-[(N-Cyclobutylmethyl-N-Methyl)Amino]Ethyl]-1-Hydroxyimino-1,2,3,4Tetrahydronaphthalene], the IC50 (sigma receptors [3]) was 7.7 nM.
With `CN(CCC1COc2ccccc2C1=O)CC1CC1` (centres unmarked) [EXAMPLE 14, 3-[2-[(N-Cyclopropylmethyl-N-Methyl)Amino]-Ethyl]4-Chromanone Hydrchloride] the IC50 (sigma receptors [3]) was 13.7 nM and the ED50 [7] was 3.5 mg/kg.
In the case of `CN(CCC1COc2ccccc2C1=O)CC1CCCCC1` (centres unmarked) [EXAMPLE 15, 3-[2-[(N-cyclohexylmethyl-N-methyl)amino]ethyl]-4-chromanone], the IC50 (sigma receptors [3]) is reported as 5.7 nM.
`CN(CCC1COc2ccc(F)cc2C1=O)CC1CCCCC1` (centres unmarked) [EXAMPLE 16, 3-[2-[(N-Cyclohexylmethyl-N-Methyl)Amino]-Ethyl]-6-Fluoro-4-Chromanone Hydrochloride] showed an IC50 (sigma receptors [3]) of 6.2 nM.
`C=CCN(C)CCC1CCc2ccccc2C1=O` (centres unmarked) [EXAMPLE 17, 2-[2-[(N-Allyl-N-Methyl)Amino]Ethyl]-1-Oxo-1,2,3,4-Tetrahydronaphthalene Hydrochloride] gave an IC50 (sigma receptors [3]) of 13.3 nM.
In the case of `O=C(CCCN1CCC(O)(c2ccc(Cl)cc2)CC1)c1ccc(F)cc1` [Haloperidol, 4-[4-(p-chlorophenyl)-4-hydroxypiperidino]-4'-fluorobutyrophenone], the “affinity for dopaminergic (D2) receptors” value [1] is given as “strong affinity for dopaminergic D2 receptors” and the extrapyramidal disorders [10] is given as “can induce extrapyramidal disorders of the cataleptic type”.
In the case of `C=CCN1CCC2(C)c3cc(O)ccc3CC1C2C` (centres unmarked) [SKF 10047, N-allylnormetazocine], the “affinity for phencyclidine (PCP) receptors” value [11] is given as “strong affinity for phencyclidine (PCP) receptors”.
For `C[C@H]1[C@H]2Cc3ccc(O)cc3[C@]1(C)CCN2CC1CC1` [cyclazocine], the “affinity for phencyclidine (PCP) receptors” value [11] is listed as “strong affinity for phencyclidine (PCP) receptors”.
